# Experimental data from ChEMBL document CHEMBL1130706, “Synthesis and structure-activity relationships of adenosine analogs as inhibitors of trypanosomal glyceraldehyde-3-phosphate dehydrogenase. Modifications at positions 5' and 8” (Bioorg Med Chem Lett, 1998).
# Assay: Compound was tested for the inhibition of Leishmania mexicana GAPDH(glyceraldehyde-3-phosphate dehydrogenase)
row,Ki,SMILES
1,18 µM,CC(C)=CCNc1ncnc2c1nc(-c1cccs1)n2C1O[C@H](CO)[C@@H](O)[C@H]1O (some centres undefined)

# Assay: Inhibition of Leishmania mexicana GAPDH(glyceraldehyde-3-phosphate dehydrogenase)
row,SMILES,Ki
1,Nc1ncnc2c1nc(-c1cccs1)n2[C@@H]1O[C@H](CO)[C@@H](O)[C@H]1O,0.3 mM
2,CC(C)=CCNc1ncnc2c1nc(-c1cccs1)n2C1O[C@H](CO)[C@@H](O)[C@H]1O (some centres undefined),0.009 mM
3,Nc1ncnc2c1ncn2C1O[C@H](CNC(=O)c2ccccc2)[C@@H](O)[C@H]1O (some centres undefined),3.3 mM
4,Nc1ncnc2c1ncn2[C@@H]1O[C@H](CO)[C@@H](O)[C@H]1O [ADENOSINE],2.5 mM
5,CC(C)Nc1nc2c(N)ncnc2n1C1O[C@H](CO)[C@@H](O)[C@H]1O (some centres undefined),1.5 mM

# Further lines, results first:
row,Ki,SMILES
1,2.8 mM,OC[C@H]1O[C@@H](n2cnc3c(NCc4ccccc4)ncnc32)[C@H](O)[C@@H]1O [N6-BENZYLADENOSINE]
2,0.8 mM,NC(=O)c1ccccc1C(=O)NC[C@H]1OC(n2cnc3c(NCc4ccccc4)ncnc32)[C@H](O)[C@@H]1O (some centres undefined)
3,4 mM,O=C1c2ccccc2C(=O)N1C[C@H]1OC(n2cnc3c(NCc4ccccc4)ncnc32)[C@H](O)[C@@H]1O (some centres undefined)
